≈ marks a conversion by molar mass, not a printed value.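 Cultured in 96-well plates, cells were exposed to test compound for 48 hours across five concentrations. Abbreviation: GI50, concentration required for 50% inhibition of growth. TGI denotes the concentration required for complete inhibition of growth.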 Where a SMILES comes first, the peptide text is derived from it. The star is where a group is joined. Boc = CC(C)(C)OC(=O)*; OBn = c1ccc(CO*)cc1
Legend:
Assay in all cases: growth of human tumour cells (NCI), 48 h
[1] = system: 786-0 renal
[2] = system: A549 NSCLC
[3] = system: ACHN renal
[4] = system: CAKI-1 renal
[5] = system: COLO 205 colon
[6] = system: EKVX NSCLC
[7] = system: HCT-116 colon
[8] = system: HCT-15 colon
[9] = system: HL-60(TB) leukemia
[10] = system: HOP-62 NSCLC
[11] = system: HS 578T breast
[12] = system: HT29 colon
[13] = system: IGROV1 ovarian
[14] = system: K-562 leukemia
[15] = system: KM12 colon
[16] = system: M14 melanoma
[17] = system: MALME-3M melanoma
[18] = system: MCF7 breast
[19] = system: MDA-MB-231 breast
[20] = system: MDA-MB-435
[21] = system: NCI-H226 lung
[22] = system: NCI-H23 lung
[23] = system: NCI-H460 lung
[24] = system: NCI/ADR-RES ovarian
[25] = system: OVCAR-3 ovarian
[26] = system: OVCAR-5 ovarian
[27] = system: SF-295 CNS
[28] = system: SK-MEL-28 melanoma
[29] = system: SN12C renal
[30] = system: SNB-19 CNS
[31] = system: SNB-75 CNS
[32] = system: SW-620 colon
[33] = system: T-47D breast
[34] = system: TK-10 renal
[35] = system: U251 CNS
[36] = system: UACC-257 melanoma
[37] = system: UACC-62 melanoma
[38] = system: UO-31 renal
[39] = system: BT-549 breast
[40] = system: CCRF-CEM leukemia
[41] = system: DU-145 prostate
[42] = system: HOP-92 NSCLC
[43] = system: LOX IMVI melanoma
[44] = system: MOLT-4 leukemia
[45] = system: NCI-H522 lung
[46] = system: OVCAR-4 ovarian
[47] = system: OVCAR-8 ovarian
[48] = system: PC-3 prostate
[49] = system: RPMI-8226 leukemia
[50] = system: RXF 393 renal
[51] = system: SF-268 CNS
[52] = system: SF-539 CNS
[53] = system: SK-MEL-2 melanoma
[54] = system: SK-MEL-5 melanoma
[55] = system: SK-OV-3 ovarian
[56] = system: A498 renal
[57] = system: SR leukemia

SMILES: COc1cccc2c1C(=O)c1c(O)c3c(c(O)c1C2=O)C[C@@](O)(/C(C)=N/NC(=O)c1ccc(Cl)c(Cl)c1)C[C@@H]3OC1CC(N)C(O)C(C)O1 (some centres undefined)
- TGI [1]: 2.1 µM
- TGI [2]: 2.68 µM
- TGI [3]: 0.256 µM
- TGI [4]: 0.562 µM
- TGI [5]: 1.5 µM
- TGI [6]: 7.4 µM
- TGI [7]: 1.04 µM
- TGI [8]: 1.16 µM
- TGI [9]: 0.397 µM
- TGI [10]: 1.28 µM
- TGI [11]: 3.18 µM
- TGI [12]: 0.379 µM
- TGI [13]: > 100 µM
- TGI [14]: 1.06 µM
- TGI [15]: 0.624 µM
- TGI [16]: 1.2 µM
- TGI [17]: 0.0838 µM
- TGI [18]: > 100 µM
- TGI [19]: 2.51 µM
- TGI [20]: 1.11 µM
- TGI [21]: 0.231 µM
- TGI [22]: 0.618 µM
- TGI [23]: > 100 µM
- TGI [24]: 2.84 µM
- TGI [25]: 0.934 µM
- TGI [26]: 0.686 µM
- TGI [27]: 0.527 µM
- TGI [28]: 0.274 µM
- TGI [29]: 0.877 µM
- TGI [30]: 0.445 µM
- TGI [31]: 2.02 µM
- TGI [32]: 1.35 µM
- TGI [33]: > 100 µM
- TGI [34]: 1.83 µM
- TGI [35]: 0.363 µM
- TGI [36]: 1.05 µM
- TGI [37]: 0.34 µM
- TGI [38]: > 100 µM

SMILES: CN(NC(=O)CC(=O)NN(C)C(=S)c1ccc(Cl)cc1)C(=S)c1ccc(Cl)cc1
- GI50 [1]: 24.6 µM
- TGI [1]: > 100 µM
- GI50 [2]: 3.86 µM
- TGI [2]: 71.7 µM
- GI50 [3]: 18.1 µM
- TGI [3]: 85.8 µM
- GI50 [39]: 12.9 µM
- TGI [39]: 53 µM
- GI50 [4]: 13.6 µM
- TGI [4]: > 100 µM
- GI50 [40]: 7.94 µM
- TGI [40]: > 100 µM
- GI50 [5]: 23 µM
- TGI [5]: 48.5 µM
- GI50 [41]: 21.9 µM
- TGI [41]: > 100 µM
- GI50 [6]: 18.8 µM
- TGI [6]: > 100 µM
- GI50 [7]: 10.7 µM
- TGI [7]: > 100 µM
- GI50 [8]: 7.72 µM
- TGI [8]: > 100 µM
- GI50 [9]: 25.1 µM
- TGI [9]: 71.7 µM
- GI50 [10]: 20.5 µM
- TGI [10]: 70.8 µM
- TGI [42]: 9.05 µM
- GI50 [11]: 17.7 µM
- TGI [11]: 48.7 µM
- GI50 [12]: 23.6 µM
- TGI [12]: > 100 µM
- GI50 [13]: 19.8 µM
- TGI [13]: > 100 µM
- GI50 [14]: 16.4 µM
- TGI [14]: > 100 µM
- GI50 [15]: 16.9 µM
- TGI [15]: 66.4 µM
- GI50 [43]: 20.2 µM
- TGI [43]: > 100 µM
- GI50 [16]: 14.1 µM
- TGI [16]: 59.3 µM
- GI50 [17]: 13.2 µM
- TGI [17]: 52 µM
- GI50 [18]: 18 µM
- TGI [18]: > 100 µM
- GI50 [19]: 19.8 µM
- TGI [19]: 65.2 µM
- GI50 [20]: 24.4 µM
- TGI [20]: > 100 µM
- GI50 [44]: 17.6 µM
- TGI [44]: > 100 µM
- GI50 [21]: 13.2 µM
- TGI [21]: 45.3 µM
- GI50 [22]: 12.1 µM
- TGI [22]: 46.2 µM
- GI50 [23]: 4.38 µM
- TGI [23]: 63.7 µM
- GI50 [45]: 19.1 µM
- TGI [45]: 60.2 µM
- GI50 [24]: 13.6 µM
- TGI [24]: 63.7 µM
- GI50 [25]: 13 µM
- TGI [25]: 46.4 µM
- GI50 [46]: 19.6 µM
- TGI [46]: > 100 µM
- GI50 [26]: 25.9 µM
- TGI [26]: > 100 µM
- GI50 [47]: 23.7 µM
- TGI [47]: > 100 µM
- GI50 [48]: 10.7 µM
- TGI [48]: 56.5 µM
- GI50 [49]: 12.6 µM
- TGI [49]: > 100 µM
- GI50 [50]: 14.7 µM
- TGI [50]: 65.4 µM
- GI50 [51]: 19.6 µM
- TGI [51]: > 100 µM
- GI50 [27]: 3.14 µM
- TGI [27]: 19.4 µM
- GI50 [52]: 27.6 µM
- TGI [52]: > 100 µM
- GI50 [53]: 22.7 µM
- TGI [53]: 81.8 µM
- GI50 [28]: 15 µM
- TGI [28]: 54.5 µM
- GI50 [54]: 15.4 µM
- TGI [54]: 46 µM
- GI50 [55]: 34.7 µM
- TGI [55]: 83.8 µM
- GI50 [29]: 18.6 µM
- TGI [29]: > 100 µM
- GI50 [30]: 23.1 µM
- TGI [30]: > 100 µM
- GI50 [31]: 22.5 µM
- TGI [31]: > 100 µM
- GI50 [32]: 29.3 µM
- TGI [32]: > 100 µM
- GI50 [33]: 21.8 µM
- TGI [33]: > 100 µM
- GI50 [34]: 23 µM
- TGI [34]: > 100 µM
- GI50 [35]: 21.3 µM
- TGI [35]: > 100 µM
- GI50 [37]: 11.2 µM
- TGI [37]: 30.2 µM
- GI50 [38]: 10.4 µM
- TGI [38]: > 100 µM

SMILES: CC(C)CC(NC(=O)OC(C)(C)C)C(=O)NC(CCC(=O)OCc1ccccc1)C(N)=O (stereo not drawn) (Boc-Leu-Glu(OBn)-NH2; configuration not given here)
- GI50 [56]: 45.5 µg/mL (≈ 101 µM)
- GI50 [5]: 87.1 µg/mL
- GI50 [14]: 54.1 µg/mL
- GI50 [16]: 32.7 µg/mL
- GI50 [17]: 32.2 µg/mL
- GI50 [45]: 29.4 µg/mL
- GI50 [46]: 34.8 µg/mL
- GI50 [49]: 43.9 µg/mL
- GI50 [28]: 20.8 µg/mL
- TGI [28]: 51.4 µg/mL
- GI50 [31]: 32.7 µg/mL
- GI50 [36]: 20.1 µg/mL (≈ 44.7 µM)
- TGI [36]: 85.9 µg/mL
- GI50 [37]: 47.9 µg/mL
- GI50 [38]: 85.5 µg/mL

SMILES: Cc1ccc(S(=O)(=O)N2CCN3CCN(CCN(C)CCN4CCN(CC4)CCN(S(=O)(=O)c4ccc(C)cc4)CCN(S(=O)(=O)c4ccc(C)cc4)CCN(S(=O)(=O)c4ccc(C)cc4)CCN(S(=O)(=O)c4ccc(C)cc4)CCN4CCN(CCN(C)CCN5CCN(CC5)CCN(S(=O)(=O)c5ccc(C)cc5)CCN(S(=O)(=O)c5ccc(C)cc5)CCN(S(=O)(=O)c5ccc(C)cc5)CC2)CC4)CC3)cc1
- TGI [40]: 0.972 µM
- TGI [6]: 5.82 µM
- TGI [8]: 2.82 µM
- TGI [9]: 2.7 µM
- TGI [14]: 11 µM
- TGI [18]: 3.3 µM
- TGI [44]: 2.91 µM
- TGI [24]: > 100 µM
- TGI [26]: 3.42 µM
- TGI [49]: 11.9 µM
- TGI [51]: 6.62 µM
- TGI [52]: 4.45 µM
- TGI [31]: 5.58 µM
- TGI [57]: 10.6 µM

From PubChem BioAssay (NCI)
